Experimental findings from paper PMC4673163, “Natural paniceins from mediterranean sponge inhibit the multidrug resistance activity of Patched and increase chemotherapy efficiency on melanoma cells” (Oncotarget, 2015) are described below.

Each structure is given as a SMILES string.

The target of the experiment is T1, human Patched (Patched 1; hPatched-MAP) (Homo sapiens, UniProt Q13635).
T1 construct: gene PTCH1; human Patched with MAP tag from pYEP-hPatched-MAP, expressed in Saccharomyces cerevisiae K699; whole yeast, not purified
T1 sequence (Q13635 1-1447): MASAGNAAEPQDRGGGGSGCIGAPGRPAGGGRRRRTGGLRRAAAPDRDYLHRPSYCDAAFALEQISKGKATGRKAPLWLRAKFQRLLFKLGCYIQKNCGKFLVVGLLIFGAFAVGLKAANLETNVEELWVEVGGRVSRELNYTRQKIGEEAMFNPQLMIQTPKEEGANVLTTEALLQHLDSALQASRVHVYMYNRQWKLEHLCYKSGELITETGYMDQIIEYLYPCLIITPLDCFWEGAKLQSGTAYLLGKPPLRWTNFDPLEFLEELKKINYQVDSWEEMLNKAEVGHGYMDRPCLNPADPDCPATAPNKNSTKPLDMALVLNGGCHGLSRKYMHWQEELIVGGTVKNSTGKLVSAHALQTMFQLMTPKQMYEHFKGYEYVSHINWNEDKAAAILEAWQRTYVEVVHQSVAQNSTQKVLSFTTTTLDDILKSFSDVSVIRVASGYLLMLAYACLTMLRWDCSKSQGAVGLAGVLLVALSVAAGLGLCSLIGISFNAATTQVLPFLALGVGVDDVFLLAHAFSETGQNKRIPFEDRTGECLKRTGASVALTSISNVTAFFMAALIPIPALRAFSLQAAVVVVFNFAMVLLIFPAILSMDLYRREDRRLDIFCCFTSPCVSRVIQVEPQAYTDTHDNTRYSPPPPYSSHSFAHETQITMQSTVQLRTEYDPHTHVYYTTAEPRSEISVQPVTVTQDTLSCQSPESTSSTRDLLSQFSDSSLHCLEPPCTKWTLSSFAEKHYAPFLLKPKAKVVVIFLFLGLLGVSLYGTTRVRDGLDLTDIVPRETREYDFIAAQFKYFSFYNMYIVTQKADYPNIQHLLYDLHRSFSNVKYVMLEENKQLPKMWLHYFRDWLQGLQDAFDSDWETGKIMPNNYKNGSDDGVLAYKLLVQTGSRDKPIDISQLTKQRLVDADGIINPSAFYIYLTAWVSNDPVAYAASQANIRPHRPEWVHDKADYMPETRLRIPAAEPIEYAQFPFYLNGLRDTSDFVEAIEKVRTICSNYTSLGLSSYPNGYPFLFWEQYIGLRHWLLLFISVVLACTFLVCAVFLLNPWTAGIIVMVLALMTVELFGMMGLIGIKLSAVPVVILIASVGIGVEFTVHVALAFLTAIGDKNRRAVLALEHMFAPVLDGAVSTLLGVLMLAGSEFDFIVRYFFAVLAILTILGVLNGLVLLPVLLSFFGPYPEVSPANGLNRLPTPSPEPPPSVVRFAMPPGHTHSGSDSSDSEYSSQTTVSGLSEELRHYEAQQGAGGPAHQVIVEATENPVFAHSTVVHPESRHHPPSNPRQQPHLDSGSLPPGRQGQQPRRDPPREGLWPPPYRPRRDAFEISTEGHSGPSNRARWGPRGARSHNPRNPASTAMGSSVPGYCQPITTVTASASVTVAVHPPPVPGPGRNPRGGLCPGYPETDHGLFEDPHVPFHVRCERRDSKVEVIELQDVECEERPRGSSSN
Briefly: doxorubicin efflux from de-energized yeast, fluorescence microscopy. It counts as cell-based. The settings on record: read-out: % inhibition of dxr efflux at 10 μM.

As for `COc1cc(C)c(CC/C(C)=C/Cc2cc(O)ccc2O)c(C)c1C` [compound 1, panicein A hydroquinone], the inhibition at 10 µM is ~40%.

As usually defined, the inhibition is the change of the read-out against control, counted positive when it falls.
